pIC50: −log10 of the molar value.

For 18 molecules, IC50 results are on record in patent US20140309192A1, “MODULATORS OF THE G PROTEIN-COUPLED MAS RECEPTOR AND THE TREATMENT OF DISORDERS RELATED THERETO” (ARENA PHARMACEUTICALS, INC., priority 2011, published 2014).

The first assay deals with T1, rat Mas receptor (Rattus norvegicus, UniProt P12526).
T1 construct: expressed in transfected cells; host or cells: HEK293 (ATCC CRL-1573)
T1 sequence (P12526 1-324): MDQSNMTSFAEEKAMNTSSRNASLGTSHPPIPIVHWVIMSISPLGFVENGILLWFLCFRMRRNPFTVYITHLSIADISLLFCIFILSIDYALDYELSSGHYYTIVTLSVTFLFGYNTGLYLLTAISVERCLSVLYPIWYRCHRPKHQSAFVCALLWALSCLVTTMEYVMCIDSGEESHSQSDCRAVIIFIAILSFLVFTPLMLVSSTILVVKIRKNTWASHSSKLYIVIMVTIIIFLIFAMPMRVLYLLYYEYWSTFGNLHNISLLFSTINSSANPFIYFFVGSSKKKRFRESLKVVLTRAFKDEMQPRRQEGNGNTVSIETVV
Nature of the assay: HTRF IP1 assay, HEK293 cells expressing rat Mas receptor. The class given is cell-based. The conditions noted are these: HTRF IP1 assay, rat Mas receptor (Table B.1); read-out: IC50. An excerpt:
(§1) Human and rat Mas receptors were either transiently or stably expressed in HEK293 cells. For transient transfections, human or rat Mas in pHM6 vector were transfected into HEK293 cells using Lipofectamine® (Invitrogen #18324-012). HEK293 cells transfected with empty pHM6 vector were used as a control. For generation of stable cell lines, cDNA expression plasmids encoding human or rat Mas genes and the neo^r gene were transfected into HEK293 cells (ATCC# CRL-1573) using Lipofectamine® (Invitrogen) according to the manufacturer's instructions. Stable receptor expressing pools were then generated over 3 weeks by standard techniques in the presence of 500 μg/mL Geneticin® (Gibco). Individual receptor stable pools were dilution cloned using standard techniques and clones were comparatively evaluated in inositol phosphate accumulation assays. Preferred clones were banked and cultured as needed. HEK293 cells were used as controls. The 384 well IP-One HTRF® Assay (Cisbio #62P1APEJ) was performed as described by the manufacturer's protocol. Cells were plated in at 100,000 cells per well in 15 μL DMEM (Gibco #11960) and incubated in a CO2 incubator at 37° C. for 2 h. Five μL of compounds diluted in 2× stimulation buffer plus 0.4% BSA (Sigma (#A3059) were added to each well and serial diluted IP1 standards (Cisbio #62IP1CDA) were also added to corresponding wells at this step. After the cells were incubated for 4 h in a CO2 incubator at 37° C., d2-labeled IP1 and cryptate-labeled anti-IP1 monoclonal antibody diluted in lysis buffer were added sequentially in 10 μL per well and the assay plates were kept in the dark at room temperature overnight. Ratiometric measurements of fluorescence emission at 665 nm and 620 nm were obtained using a Pherastar fluorometer (BMG Labtech). IP1 levels in each well were calculated according to the standard curves on each plate. IC50 values were obtained by fitting data to a nonlinear curve-fitting program (GraphPad Software, Inc., La Jolla Calif.).
For orientation: TR-FRET usually uses a lanthanide donor and a delayed reading to cut background.
For the molecule `O=C(Nc1ccc(Cl)cc1N1CCN(CCC(F)(F)F)CC1)c1ccc(CN2CCC(CO)CC2)cc1F` [Compound 54, N-(4-Chloro-2-(4-(3,3,3-trifluoropropyl)piperazin-1-yl)phenyl)-2-fluoro-4-((4-(hydroxymethyl)piperidin-1-yl)methyl)benzamide], the pIC50 was 6.30.
On the same count and under the same terms, the same measure for `C[C@H](NCc1ccc(C(=O)Nc2ccc(Cl)cc2N2CCN(CCC(F)(F)F)CC2)c(F)c1)C(N)=O` [Compound 67, (S)-4-((1-Amino-1-oxopropan-2-ylamino)methyl)-N-(4-chloro-2-(4-(3,3,3-trifluoropropyl)piperazin-1-yl)phenyl)-2-fluorobenzamide]: 7.09.
`O=C(Nc1ccc(Cl)cc1N1CCN(CCC(F)(F)F)CC1)c1ccc(CNC2CCCCNC2=O)cc1F` (centres unmarked) [Compound 79, N-(4-Chloro-2-(4-(3,3,3-trifluoropropyl)piperazin-1-yl)phenyl)-2-fluoro-4-((2-oxoazepan-3-ylamino)methyl)benzamide]: the negative-log IC50 (pIC50) was 6.87.
The same measure, in the same setting: the same measure for `N[C@@H]1CCCN(Cc2ccc(C(=O)Nc3ccc(Cl)cc3N3CCN(CCC(F)(F)F)CC3)c(F)c2)C1` [Compound 90, (R)-4-((3-Aminopiperidin-1-yl)methyl)-N-(4-chloro-2-(4-(3,3,3-trifluoropropyl)piperazin-1-yl)phenyl)-2-fluorobenzamide]: 6.15.
On the same count and under the same terms, next, `O=C(Nc1ccc(Cl)cc1N1CCN(CCC(F)(F)F)CC1)c1ccc(CNC(CO)(CO)CO)cc1F` [Compound 103, N-(4-Chloro-2-(4-(3,3,3-trifluoropropyl)piperazin-1-yl)phenyl)-4-((1,3-dihydroxy-2-(hydroxymethyl)propan-2-ylamino)methyl)-2-fluorobenzamide]: 6.27.
Still for that read-out and setting: next, `CCN1CCCCC(NCc2ccc(C(=O)Nc3ccc(Cl)cc3N3CCN(CCC(F)(F)F)CC3)c(F)c2)C1=O` (centres unmarked) [Compound 117, N-(4-Chloro-2-(4-(3,3,3-trifluoropropyl)piperazin-1-yl)phenyl)-4-((1-ethyl-2-oxoazepan-3-ylamino)methyl)-2-fluorobenzamide]: 6.43.
Take `C[C@@H](O)CNCc1ccc(C(=O)Nc2ccc(Cl)cc2N2CCN(CCC(F)(F)F)CC2)c(F)c1` [Compound 130, (R)—N-(4-Chloro-2-(4-(3,3,3-trifluoropropyl)piperazin-1-yl)phenyl)-2-fluoro-4-((2-hydroxypropylamino)methyl)benzamide]: the pIC50 is 6.60.
The same measure, in the same setting: the same measure for `O=C(Nc1ccc(Cl)cc1N1CCN(CCC(F)(F)F)CC1)c1ccc(CN(CCO)CCO)cc1F` [Compound 144]: 6.96.
Consider `O=C(Nc1ccc(Cl)cc1N1CCN(CCC(F)(F)F)CC1)c1ccc(CN2CCN3CCCC3C2)cc1F` (centres unmarked) [Compound 157, N-(4-Chloro-2-(4-(3,3,3-trifluoropropyl)piperazin-1-yl)phenyl)-2-fluoro-4-((hexahydropyrrolo[1,2-a]pyrazin-2(1H)-yl)methyl)benzamide], for which the pIC50 was 6.74.
Still for that read-out and setting: next, `O=C(Nc1ccc(Cl)cc1N1CCN(CCC(F)(F)F)CC1)c1ccc(CN2CCS(=O)(=O)CC2)c(F)c1F` [Compound 168, N-(4-Chloro-2-(4-(3,3,3-trifluoropropyl)piperazin-1-yl)phenyl)-2,3-difluoro-4-((1,1-dioxo-thiomorpholin-4-yl)methyl)benzamide]: 7.57; `O=C(Nc1ccc(Cl)cc1N1CCN(CCC(F)(F)F)CC1)c1ccc(CN(CCO)CCO)c(F)c1F` [Compound 178]: 7.35; `O=C1CN(Cc2ccc(C(=O)Nc3cc(Cl)c(Cl)cc3N3CCN(CCC(F)(F)F)CC3)c(F)c2F)CCN1` [Compound 188, N-(4,5-Dichloro-2-(4-(3,3,3-trifluoropropyl)piperazin-1-yl)phenyl)-2,3-difluoro-4-((3-oxopiperazin-1-yl)methyl)benzamide]: 7.54.
For the molecule `COC(=O)[C@H](CN)NCc1ccc(C(=O)Nc2ccc(Cl)cc2N2CCN(CCC(F)(F)F)CC2)c(F)c1` [Compound 198, (S)-Methyl 3-amino-2-(4-(4-chloro-2-(4-(3,3,3-trifluoropropyl)piperazin-1-yl)phenylcarbamoyl)-3-fluorobenzylamino)propanoate], the pIC50 is 6.76.
On the same count and under the same terms, next, `CN(CC(=O)O)Cc1ccc(C(=O)Nc2ccc(Cl)cc2N2CCN(CCC(F)(F)F)CC2)c(F)c1F` [Compound 210, 2-((4-(4-Chloro-2-(4-(3,3,3-trifluoropropyl)piperazin-1-yl)phenylcarbamoyl)-2,3-difluorobenzyl)(methyl)amino)acetic acid]: 7.17.
As to `CC(C)(C)OC(=O)NCC[C@H](NCc1ccc(C(=O)Nc2ccc(Cl)cc2N2CCN(CCC(F)(F)F)CC2)c(F)c1F)C(=O)O` [Compound 221, (S)-4-(tert-Butoxycarbonylamino)-2-(4-(4-chloro-2-(4-(3,3,3-trifluoropropyl)piperazin-1-yl)phenylcarbamoyl)-2,3-difluorobenzylamino)butanoic acid], the pIC50 was 6.80.
Turning to `O=C(O)C[C@H]1CNCCN1Cc1ccc(C(=O)Nc2ccc(Cl)cc2N2CCN(CCC(F)(F)F)CC2)c(F)c1F` [Compound 231, (S)-2-(1-(4-(4-Chloro-2-(4-(3,3,3-trifluoropropyl)piperazin-1-yl)phenylcarbamoyl)-2,3-difluorobenzyl)piperazin-2-yl)acetic acid], the pIC50 is 7.30.
Still for that read-out and setting: the same measure for `C[C@@H](CO)NC(=O)C1CNCCN1Cc1ccc(C(=O)Nc2ccc(Cl)cc2N2CCN(CCC(F)(F)F)CC2)c(F)c1F` (stereo partly drawn) [Compound 242, 1-(4-(4-Chloro-2-(4-(3,3,3-trifluoropropyl)piperazin-1-yl)phenylcarbamoyl)-2,3-difluorobenzyl)-N—((S)-1-hydroxypropan-2-yl)piperazine-2-carboxamide]: 6.50; for `O=C(Nc1ccc(Cl)cc1N1CCN(CCC(F)(F)F)CC1)c1ccc(CN2CCC[C@@H](CO)C2)c(F)c1F` [Compound 252, (R)—N-(4-Chloro-2-(4-(3,3,3-trifluoropropyl)piperazin-1-yl)phenyl)-2,3-difluoro-4-((3-(hydroxymethyl)piperidin-1-yl)methyl)benzamide]: 6.94.

For the next assay, the target named is T2, human Mas receptor (Homo sapiens, UniProt P04201).
T2 construct: expressed in transfected cells; host or cells: HEK293 (ATCC CRL-1573)
T2 sequence (P04201 1-325): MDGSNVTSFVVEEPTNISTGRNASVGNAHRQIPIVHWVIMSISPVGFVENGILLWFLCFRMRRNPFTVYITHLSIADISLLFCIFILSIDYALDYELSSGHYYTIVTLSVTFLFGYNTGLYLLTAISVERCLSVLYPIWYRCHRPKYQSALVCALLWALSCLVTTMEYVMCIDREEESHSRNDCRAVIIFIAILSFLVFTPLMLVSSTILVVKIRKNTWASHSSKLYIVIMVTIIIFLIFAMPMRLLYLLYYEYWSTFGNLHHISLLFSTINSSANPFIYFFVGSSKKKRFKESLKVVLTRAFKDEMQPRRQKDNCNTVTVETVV
As to the kind of experiment: HTRF IP1 assay, HEK293 cells expressing human Mas receptor. The class given is cell-based. The conditions noted are these: HTRF IP1 assay, human Mas receptor (Table B.2); read-out: IC50.
Description: as §1
As for `O=C(Nc1ccc(Cl)cc1N1CCN(CCC(F)(F)F)CC1)c1ccc(CN(CCO)CCO)c(F)c1F` [Compound 178], the pIC50 was 7.46.
The same measure, in the same setting: the same measure for `O=C(O)C[C@H]1CNCCN1Cc1ccc(C(=O)Nc2ccc(Cl)cc2N2CCN(CCC(F)(F)F)CC2)c(F)c1F` [Compound 231, (S)-2-(1-(4-(4-Chloro-2-(4-(3,3,3-trifluoropropyl)piperazin-1-yl)phenylcarbamoyl)-2,3-difluorobenzyl)piperazin-2-yl)acetic acid]: 7.13.

Usually pIC50 stands for the negative decadic logarithm of the IC50, by convention in mol/L.
